Measurements: patent publication US9079922B2, “2-oxo-oxazolidin-3,5-diyl antibiotic derivatives” (priority 2011, dated 2015)
≈ marks a conversion by molar mass, not a printed value.

Columns and labels:
[1] = test system: Acinetobacter baumanii T6474; test: Bacterial growth minimal inhibitory concentration (microdilution, cation-adjusted Mueller-Hinton Broth); type: cell-based; settings: Acinetobacter baumannii, multiply-resistant strain, in particular quinolone resistant
Method: (§1) Bacterial Growth Minimal Inhibitory Concentrations:
(§2) Minimal inhibitory concentrations (MICs; mg/l) were determined in cation-adjusted Mueller-Hinton Broth by a microdilution method following the description given in “Methods for Dilution Antimicrobial Susceptibility Tests for Bacteria that Grow Aerobically”, Approved standard, 7th ed., Clinical and Laboratory Standards Institute (CLSI) Document M7-A7, Wayne, Pa., USA, 2006.
(§3) All Example compounds were tested against several Gram positive and Gram negative bacteria. Staphylococcus aureus A798 and Acinetobacter baumanii T6474 are multiply-resistant strains, in particular quinolone resistant.

[2] = test system: Staphylococcus aureus A798; test: as above; type: cell-based; settings: multiply-resistant strain, in particular quinolone resistant, read-out: MIC for S. aureus A798
Method: as §1, §2, §3

| SMILES | MIC [1] | MIC [2] |
| --- | --- | --- |
| O=C1CSc2ccc(N3C[C@@H](CN4CCN(c5nc6c(cc5F)c(=O)c(C(=O)O)cn6C5CC5)CC4)OC3=O)cc2N1 [Example 4, 1-cyclopropyl-6-fluoro-4-oxo-7-{4-[(R)-2-oxo-3-(3-oxo-3,4-dihydro-2H-benzo[1,4]thiazin-6-yl)-oxazolidin-5-ylmethyl]-piperazin-1-yl}-1,4-dihydro-[1,8]naphthyridine-3-carboxylic acid] | 0.125 µg/mL (≈ 0.21 µM) | ≤ 0.016 µg/mL |
| O=C1COc2ccc(N3C[C@@H](CN4CCN(c5nc6c(cc5F)c(=O)c(C(=O)O)cn6C5CC5)CC4)OC3=O)nc2N1 [Example 18, 1-cyclopropyl-6-fluoro-4-oxo-7-{4-[(R)-2-oxo-3-(3-oxo-3,4-dihydro-2H-pyrido[3,2-b][1,4]oxazin-6-yl)-oxazolidin-5-ylmethyl]-piperazin-1-yl}-1,4-dihydro-[1,8]naphthyridine-3-carboxylic acid] | 0.25 µg/mL (≈ 0.431 µM) | 0.031 µg/mL (≈ 0.0535 µM) |
| O=C1CSc2ccc(N3C[C@@H](CNC4CN(c5ccc6c(=O)c(C(=O)O)cn(C7CC7)c6n5)C4)OC3=O)cc2N1 [Example 10, 1-cyclopropyl-4-oxo-7-(3-{[(R)-2-oxo-3-(3-oxo-3,4-dihydro-2H-benzo[1,4]thiazin-6-yl)-oxazolidin-5-ylmethyl]-amino}-azetidin-1-yl)-1,4-dihydro-[1,8]naphthyridine-3-carboxylic acid] | 0.25 µg/mL (≈ 0.444 µM) | 0.063 µg/mL (≈ 0.112 µM) |
| O=C1COc2ccc(N3C[C@H](CNC[C@@H]4CCN(c5nc6c(cc5F)c(=O)c(C(=O)O)cn6C5CC5)C4)OC3=O)nc2N1 [Example 22, 1-cyclopropyl-6-fluoro-4-oxo-7-[(S)-3-({[(S)-2-oxo-3-(3-oxo-3,4-dihydro-2H-pyrido[3,2-b][1,4]oxazin-6-yl)-oxazolidin-5-ylmethyl]-amino}-methyl)-pyrrolidin-1-yl]-1,4-dihydro-[1,8]naphthyridine-3-carboxylic acid] | 0.031 µg/mL (≈ 0.0522 µM) | 0.125 µg/mL (≈ 0.211 µM) |
| O=C1COc2ccc(N3C[C@@H](CNC4CN(c5nc6c(cc5F)c(=O)c(C(=O)O)cn6CCO)C4)OC3=O)nc2N1 [Example 15, 6-fluoro-1-(2-hydroxy-ethyl)-4-oxo-7-(3-{[(R)-2-oxo-3-(3-oxo-3,4-dihydro-2H-pyrido[3,2-b][1,4]oxazin-6-yl)-oxazolidin-5-ylmethyl]-amino}-azetidin-1-yl)-1,4-dihydro-[1,8]naphthyridine-3-carboxylic acid] | 4 µg/mL (≈ 7.02 µM) | 0.25 µg/mL (≈ 0.439 µM) |
